Biological target: T1, human Edg-1 receptor (Homo sapiens, UniProt P21453)
T1 construct: expressed in transfected cells; membrane preparation
Test: GTP-γ-S assay using human Edg-1 receptors (scintillation proximity assay, membrane preparation from CHO Flp-In cell line)
Assay type: biochemical
Details: example compound at 10 μM; relative to 10 μM S1P; GTP-γ-S SPA, human Edg-1 membranes
Summary of the method: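 Membranes came from Flp-In CHO cells constitutively expressing human Edg-1 carrying an N-terminal FLAG tag. Compound-induced receptor activation was read as GTP-γ-S binding in a scintillation proximity format.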

T1 sequence (P21453 whole entry): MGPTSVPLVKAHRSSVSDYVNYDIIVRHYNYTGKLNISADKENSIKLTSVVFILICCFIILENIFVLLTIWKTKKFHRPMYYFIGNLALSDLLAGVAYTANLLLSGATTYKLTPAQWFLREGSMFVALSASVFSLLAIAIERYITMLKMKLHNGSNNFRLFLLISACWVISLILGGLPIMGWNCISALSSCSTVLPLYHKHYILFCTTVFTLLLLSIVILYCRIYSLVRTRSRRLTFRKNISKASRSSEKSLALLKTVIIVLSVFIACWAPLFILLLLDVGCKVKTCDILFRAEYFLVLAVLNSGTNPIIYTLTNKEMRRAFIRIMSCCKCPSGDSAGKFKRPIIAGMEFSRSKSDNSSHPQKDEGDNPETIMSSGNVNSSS

% Activation (Edg-1 receptor activation in percent of the activation by 10 μM S1P) [%] | SMILES
78 | CCCOc1nc(Cc2ccc(Cl)cc2)nc2oc(-c3ccc(F)c(C)c3)nc12 [Example 172]
77 | CCCOc1nc(Cc2ccc(Cl)cc2)nc2oc(-c3cnc(N4CCN(C)CC4)nc3)nc12 [Example 173]
75 | CCCOc1nc(Cc2ccc(Cl)cc2)nc2oc(-c3cncnc3)nc12 [Example 174]
116 | CCCOc1nc(Cc2ccc(Cl)cc2)nc2oc(-c3ccc(C(C)=O)s3)nc12 [Example 175]
94 | CCCOc1nc(Cc2ccc(Cl)cc2)nc2oc(-c3ccc(OC)c(C)c3)nc12 [Example 176]
106 | CCCOc1nc(Cc2ccc(Cl)cc2)nc2oc(-c3cc(OC)ncc3Cl)nc12 [Example 177]
91 | CCCOc1nc(Cc2ccc(Cl)cc2)nc2oc(-c3ccc(N(C)C)c(C)c3)nc12 [Example 178]
87 | CCCOc1nc(CN2CCCC(O)C2)nc2oc(-c3cccc(F)c3)nc12 (stereo not drawn) [Example 179]
41 | CCCOc1nc(CN2C(C(=O)O)CCS2(=O)=O)nc2oc(-c3cccc(F)c3)nc12 (stereo not drawn) [Example 180]
58 | CCCOc1nc(CN2CCC(O)C2)nc2oc(-c3cccc(F)c3)nc12 (stereo not drawn) [Example 181]
108 | CCCOc1nc(CN2CCCCC2)nc2oc(-c3cccc(F)c3)nc12 [Example 182]
85 | CCCOc1nc(CN2CCCC2)nc2oc(-c3cccc(F)c3)nc12 [Example 183]
88 | CCCOc1nc(CN2CCOC[C@@H]2C)nc2oc(-c3cccc(F)c3)nc12 [Example 184]
97 | CCCOc1nc(CN2CCOC[C@@H]2CO)nc2oc(-c3cccc(F)c3)nc12 [Example 185]
123 | Cc1cccc(-c2nc3c(OC(C)C)nc(CN4CCOCC4)nc3o2)c1 [Example 186]
116 | Cc1cccc(-c2nc3c(OC4COC4)nc(CN4CCOCC4)nc3o2)c1 [Example 187]
112 | CCCOc1nc(Cc2ccccc2)nc2oc(-c3cc(C)c(OC)c(C)c3)nc12 [Example 188]
114 | COc1cccc(-c2nc3c(OCC(C)C)nc(Cc4ccccc4)nc3o2)c1 [Example 189]
66 | CCOc1nc(Cc2ccc(Cl)cc2)nc2oc(-c3cc(C)c(OC)c(C)c3)nc12 [Example 190]
98 | CCOc1nc(Cc2ccc(Cl)cc2)nc2oc(-c3cc(C)c(O)c(C)c3)nc12 [Example 191]
60 | CCCOc1nc(Cc2ccc(Cl)cc2)nc2oc(-c3cc(C)c(OCC(O)CN(C)C)c(C)c3)nc12 (stereo not drawn) [Example 192]
114 | CCCOc1nc(Cc2ccc(Cl)cc2)nc2oc(-c3cc(C)c(OCC(O)CN4CCOCC4)c(C)c3)nc12 (stereo not drawn) [Example 193]
98 | Cc1cc(-c2nc3c(OC(C)C)nc(Cc4ccc(Cl)cc4)nc3o2)cc(C)c1OCC(O)CN1CCOCC1 (stereo not drawn) [Example 194]
68 | CCCOc1nc(Cc2ccc(Cl)cc2)nc2oc(-c3ccc(Cl)nc3)nc12 [Example 201]

% Activation (Edg-1 receptor activation in percent of the activation by 10 μM S1P) [%] | SMILES
109 | CCCOc1nc(CN2CC[C@H](F)C2)nc2oc(-c3cccc(F)c3)nc12 [Example 202]
79 | CCCOc1nc(Cn2cnc(C#N)n2)nc2oc(-c3cccc(F)c3)nc12 [Example 203]
79 | CCCOc1nc(Cn2cncn2)nc2oc(-c3cccc(F)c3)nc12 [Example 204]
115 | CC(C)Oc1nc(CN2CCOCC2)nc2oc(-c3cccc(F)c3)nc12 [Example 205]
67 | CCCOc1nc(Cc2ccc(Cl)cc2)nc2oc(-c3cc(C)c(OCC(O)CNC4CCN(CC(C)C)CC4)c(C)c3)nc12 (stereo not drawn) [Example 206]
302 | CCCOc1nc(Cc2ccc(Cl)cc2)nc2oc(-c3ccc(OCC(O)CN)c(Cl)c3)nc12 (stereo not drawn) [Example 207]
111 | CCOc1nc(Cc2ccc(Cl)cc2)nc2oc(-c3cc(C)c(OCC(O)CNC(C)=O)c(C)c3)nc12 (stereo not drawn) [Example 208]
110 | CCCOc1nc(Cc2ccc(Cl)cc2)nc2oc(-c3cc(C)c(OCC(O)CNCc4ccccc4)c(C)c3)nc12 (stereo not drawn) [Example 209]
94 | CCCOc1nc(Cc2ccc(Cl)cc2)nc2oc(-c3ccc(OCC(O)CNCc4ccccc4)c(Cl)c3)nc12 (stereo not drawn) [Example 210]
112 | CCCOc1nc(Cc2ccc(Cl)cc2)nc2oc(-c3ccc(OCC(O)CNC4CCCCC4)c(Cl)c3)nc12 (stereo not drawn) [Example 211]
78 | CCCOc1nc(Cc2ccc(Cl)cc2)nc2oc(-c3cc(C)c(OCC(O)CNC(=O)CO)c(C)c3)nc12 (stereo not drawn) [Example 212]
101 | CCCOc1nc(Cc2ccccc2)nc2oc(-c3cccc(OCCO)c3)nc12 [Example 213]
106 | CCCOc1nc(Cc2ccc(Cl)cc2)nc2oc(-c3cc(C)c(OCC(O)CNC(C)=O)c(C)c3)nc12 (stereo not drawn) [Example 214]
96 | CCCOc1nc(Cc2ccccc2)nc2oc(-c3cccc(O)c3)nc12 [Example 215]
105 | CCCC(=O)NCC(O)COc1c(C)cc(-c2nc3c(OCC)nc(Cc4ccc(Cl)cc4)nc3o2)cc1C (stereo not drawn) [Example 216]
78 | CCOc1nc(Cc2ccc(Cl)cc2)nc2oc(-c3cc(C)c(OCC(O)CNC(=O)CC(C)C)c(C)c3)nc12 (stereo not drawn) [Example 217]
42 | CCCOc1nc(Cc2ccc(Cl)cc2)nc2oc(-c3ccc(OC)c(Cl)c3)nc12 [Example 218]
107 | CCCOc1nc(Cc2ccc(Cl)cc2)nc2oc(-c3ccc(OCC(=O)O)c(Cl)c3)nc12 [Example 219]
69 | CCCOc1nc(Cc2ccc(Cl)cc2)nc2oc(-c3cc(C)c(OCC(O)CNC(=O)CC(C)C)c(C)c3)nc12 (stereo not drawn) [Example 220]
84 | CCOc1nc(Cc2ccc(Cl)cc2)nc2oc(-c3cc(C)c(OCC(O)CNCC(c4cccnc4)N(C)C)c(C)c3)nc12 (stereo not drawn) [Example 221]
92 | CCCOc1nc(Cc2ccc(Cl)cc2)nc2oc(-c3cc(C)c(OCCCNCCS(N)(=O)=O)c(C)c3)nc12 [Example 223]
113 | CCCOc1nc(Cc2ccc(Cl)cc2)nc2oc(-c3cc(C)c(OCCCNCCC(=O)O)c(C)c3)nc12 [Example 224]
100 | CCCOc1nc(Cc2ccc(Cl)cc2)nc2oc(-c3cc(C)c(OCCCNCCO)c(C)c3)nc12 [Example 225]
98 | CCOc1nc(Cc2ccc(Cl)cc2)nc2oc(-c3cc(C)c(OCC(=O)N[C@@H](CO)C(=O)O)c(C)c3)nc12 [Example 226]

Same assay, conditions: example compound at 10 μM; relative to 10 μM S1P; GTP-γ-S SPA, human Edg-1 membranes; read-out: % Activation (Edg-1 receptor activation in percent of the activation by 10 μM S1P)

activation at 10 µM [%] | SMILES
84 | CCCOc1nc(Cc2ccc(Cl)cc2)nc2oc(-c3cc(C)c(OCC(O)CNC(=O)c4ccccc4)c(C)c3)nc12 (stereo not drawn) [Example 195, N-(3-{4-[5-(4-Chloro-benzyl)-7-propoxy-oxazolo[5,4-d]pyrimidin-2-yl]-2,6-dimethyl-phenoxy}-2-hydroxy-propyl)-benzamide]
83 | CCOc1nc(Cc2ccc(Cl)cc2)nc2oc(-c3cc(C)c(OCC(O)CSc4nnc(C(C)C)[nH]4)c(C)c3)nc12 (stereo not drawn) [Example 196, 1-{4-[5-(4-Chloro-benzyl)-7-ethoxy-oxazolo[5,4-d]pyrimidin-2-yl]-2,6-dimethyl-phenoxy}-3-(5-isopropyl-4H-[1,2,4]triazol-3-ylsulfanyl)-propan-2-ol]
119 | CCOc1nc(Cc2ccc(Cl)cc2)nc2oc(-c3cc(C)c(OCC(O)CS(=O)(=O)c4nnc(C(C)C)[nH]4)c(C)c3)nc12 (stereo not drawn) [Example 197, 1-{4-[5-(4-Chloro-benzyl)-7-ethoxy-oxazolo[5,4-d]pyrimidin-2-yl]-2,6-dimethyl-phenoxy}-3-(5-isopropyl-4H-[1,2,4]triazole-3-sulfonyl)-propan-2-ol]
111 | CCCOc1nc(Cc2ccc(Cl)cc2)nc2oc(-c3cc(C)c(OCC(=O)O)c(C)c3)nc12 [Example 198, {4-[5-(4-Chloro-benzyl)-7-propoxy-oxazolo[5,4-d]pyrimidin-2-yl]-2,6-dimethyl-phenoxy}-acetic acid]
112 | CCCOc1nc(Cc2ccc(Cl)cc2)nc2oc(-c3cc(C)c(OCC(=O)NCC(=O)O)c(C)c3)nc12 [Example 199, (2-{4-[5-(4-Chloro-benzyl)-7-propoxy-oxazolo[5,4-d]pyrimidin-2-yl]-2,6-dimethyl-phenoxy}-acetylamino)-acetic acid]
79 | CCCOc1nc(Cc2ccc(Cl)cc2)nc2oc(-c3cc(C)c(OCCCN4CCOCC4)c(C)c3)nc12 [Example 200, 5-(4-Chloro-benzyl)-2-[3,5-dimethyl-4-(3-morpholin-4-yl-propoxy)-phenyl]-7-propoxy-oxazolo[5,4-d]pyrimidine]
